Measured values reported in patent publication US20220340566A1, “BENZYL AMINE-CONTAINING 5,6-HETEROAROMATIC COMPOUNDS USEFUL AGAINST MYCOBACTERIAL INFECTION” (priority 2019, published 2022).
Read-outs that look alike come from different tables or passages of the source.

What was measured:
[1] = Metabolic stability test in pooled human liver microsomes; assay type: in vitro ADME; settings: human liver microsomes 0.5 mg protein/mL, 1 mmol/L NADPH, 37° C., 30 minutes
Description: Using a commercially available pooled human liver microsomes, a compound of the present invention was reacted for a constant time, a remaining rate was calculated by comparing a reacted sample and an unreacted sample, thereby, a degree of metabolism in liver was assessed.
A reaction was performed (oxidative reaction) at 37° C. for 0 minute or 30 minutes in the presence of 1 mmol/L NADPH in 0.2 mL of a buffer (50 mmol/L Tris-HCl pH 7.4, 150 mmol/L potassium chloride, 10 mmol/L magnesium chloride) containing 0.5 mg protein/mL of human liver microsomes. After the reaction, 50 μL of the reaction solution was added to 100 μL of a methanol/acetonitrile=1/1 (v/v), mixed and centrifuged at 3000 rpm for 15 minutes. The compound of the present invention in the supernatant was quantified by LC/MS/MS or solid phase extraction (SPE)/MS, and a remaining amount of the compound of the present invention after the reaction was calculated, letting a compound amount at 0 minute reaction time to be 100%.

[2] = test system: Mycobacterium avium ATCC700898; assay: Determination of IC85 against M. avium (resazurin fluorescence); assay type: cell-based; settings: 37° C., 3 days incubation then resazurin, fluorescence one day later
[3] = Mycobacterium avium, ATCC700898, M. avium ATCC700898, CAMHB medium, read-out: IC85

| SMILES | MS_h_% (remaining amount of compound after reaction, 0 minute = 100%) [1] [%] | IC85 [2, 3] [nM] | IC85 ([2]; M. avium ATCC700898, CAMHB medium) [nM] |
| --- | --- | --- | --- |
| Cc1ccn2c(C(=O)NCc3ccc(N4CCN(c5ccc(OC(F)(F)F)cc5)[C@@H](C)C4)cc3)c(C)nc2c1 [Compound I-3-28] | 75.4 | 36 |  |
| CCc1nc2cc(F)ccn2c1C(=O)NCc1ccc(N2CCN(c3ccc(OC(F)(F)F)cc3)[C@@H](C)C2)c(Cl)c1.Cl [Compound I-1-141] | 93 | 2 |  |
| Cl.O=C(NCc1ccc(OC2CCC(Oc3ccc(OC(F)(F)F)cc3)CC2)c(F)c1)c1cnc2ccc(Cl)cn12 (centres unmarked) [Compound I-3-41] | 65.4 | 150 |  |
| CCc1nc2ccc(Cl)cn2c1C(=O)NCc1cc(F)c(N2CCN(c3ccc(OC(F)(F)F)cc3)[C@@H](C)C2)c(F)c1.Cl [Compound I-1-92] | 66 | 5.5 |  |
| COc1ccn2nc(C)c(C(=O)NCc3ccc(N4CCN(c5ccc(OC(F)(F)F)cc5)[C@@H](C)C4)c(F)c3F)c2c1.Cl [Compound I-1-130] | 74 | 49 |  |
| CCc1nc2ccc(Cl)cn2c1C(=O)NCc1ccc(-n2ccc(C(F)(F)F)n2)cc1 [Compound I-3-25] | 77 | 140 |  |
| Cc1nn2cc(F)ccc2c1C(=O)NCc1ccc(N2CCN(c3ccc(OC(F)(F)F)cc3)[C@@H](C)C2)c(F)c1.Cl [Compound I-1-105] | 77 | 59 |  |
| Cc1nc2ccc(F)cn2c1C(=O)NCc1ccc(N2CCN(c3ccc(OC(F)(F)F)cc3)C(C)(C)C2)c(F)c1 [Compound I-1-33] | 85 | 68 |  |
| CCc1nc2cc(C)ccn2c1C(=O)NCc1ccc(Oc2cccc(C(F)(F)F)c2)cc1 [Compound I-3-40] | 66 | 590 |  |
| CCc1nc2cc(F)ccn2c1C(=O)NCc1ccc(N2CCN(c3ccc(OCC(F)(F)F)nc3)[C@@H](CC)C2)c(F)c1.Cl [Compound I-2-3] | 90.3 | 17 |  |
| CCc1nc2ccc(Cl)cn2c1C(=O)NCc1ccc(-c2ccc(OC(F)(F)F)cc2)c(F)c1 [Compound I-3-7] | 89.5 | 56 |  |
| Cc1nc2ccc(F)cn2c1C(=O)NCc1ccc(N2CCN(c3ccc(C(F)(F)F)cn3)CC2)c(C(F)(F)F)c1 [Compound I-2-5] | 81.8 | 420 |  |
| C[C@H]1CN(c2ccc(CNC(=O)c3c(Cl)nc4ccccn34)cc2F)CCN1c1ccc(OC(F)(F)F)cc1.Cl [Compound I-1-59] | 87 | 11 |  |
| CCc1nc2cc(F)ccn2c1C(=O)NCc1ccc(N2CCN(c3ccc(OCC(F)(F)F)cc3)[C@@H](C)C2)c(F)c1.Cl [Compound I-1-115] | 69 | 4.6 |  |
| CCc1nc2ccc(Cl)cn2c1C(=O)NCc1ccc(C2CCN(c3ccc(OC4CC4)cc3)CC2)c(F)c1.Cl [Compound I-1-74] | 64 | 39 |  |
| Cc1ccn2c(C(=O)NCc3ccc(N4C[C@H](C)N(c5ccc(OC(F)(F)F)cc5)C[C@H]4C)c(F)c3)c(C)nc2c1 [Compound I-1-41] | 86 | 180 |  |
| CCc1nc2ccc(Cl)cn2c1C(=O)NCc1ccc(N2C[C@H](C)N(c3ccc(OCC(F)(F)F)nc3)C[C@H]2C)c(F)c1.Cl [Compound I-1-134] | 65 | 43 |  |
| Cc1ccn2c(C(=O)NCc3ccc(C4CCN(c5ccc(OC(F)(F)F)cc5F)CC4)c(F)c3)c(C)nc2c1 [Compound I-1-22] | 87 | 28 |  |
| CCc1nc2ccc(Cl)cn2c1C(=O)NCc1ccc(N2CCN(c3ccc(OC(F)(F)F)cc3)[C@@H](C)C2)c(Cl)c1.Cl [Compound I-1-139] | 61 | 9 |  |
| CCOc1ccc(N2CCC(c3ccc(CNC(=O)c4c(CC)nc5ccc(Cl)cn45)c(F)c3)CC2)cc1.Cl [Compound I-1-143] | 77 | 23 |  |
| CCc1nc2cc(F)ccn2c1C(=O)NCc1ccc(C2CCN(c3ccc(C(C)(C)C)cc3)CC2)cc1F.Cl [Compound I-1-149] | 63 | 15 |  |
| CCc1nc2ccc(Cl)cn2c1C(=O)NCc1ccc(N2C[C@H](C)N(c3ccc(OC(F)(F)F)cc3)C[C@H]2C)c(F)c1 [Compound I-1-39] | 75 | 11 |  |

| SMILES | MS_h_% (remaining amount of compound after reaction, 0 minute = 100%) [1] [%] | IC85 [2, 3] [nM] | IC85 ([2]; M. avium ATCC700898, CAMHB medium) [nM] |
| --- | --- | --- | --- |
| Cc1nn2ccc(Br)cc2c1C(=O)NCc1ccc(N2CCN(c3ccc(OC(F)(F)F)cc3)[C@@H](C)C2)c(F)c1.Cl [Compound I-1-122] | 81 | 66 |  |
| CCc1nc2cc(F)ccn2c1C(=O)NCc1ccc(N2CCN(c3ccc(OC(F)(F)F)cn3)[C@@H](C)C2)c(F)c1.Cl [Compound I-1-108] | 71 | 4.2 |  |
| Cc1cn2c(C(=O)NCc3ccc(N4CCN(c5ccc(OC(F)(F)F)cc5)C(C)(C)C4)c(F)c3)c(C)nc2s1 [Compound I-3-14] | 82.7 | 190 |  |
| Cc1nc2ccc(F)cn2c1C(=O)NCc1ccc(C2CCN(c3ccc(OC(F)(F)F)cc3)CC2)c(F)c1 [Compound I-1-18] | 85 | 11 |  |
| CCOc1ccc(N2CCC(c3ccc(CNC(=O)c4c(CC)nc5cc(F)ccn45)c(F)c3)CC2)cc1.Cl [Compound I-1-147] | 91 | 8.3 |  |
| CCc1nc2ccc(Cl)cn2c1C(=O)NCc1ccc(C2CCN(c3ccc(OC(F)(F)F)cc3)[C@@H](C)C2)c(F)c1.Cl (some centres unmarked) [Compound I-1-106] | 59 | 6.2 |  |
| Cc1cn2c(C(=O)NCc3ccc(-c4ccc(OC(C)C)cc4)c(F)c3)c(C)nc2s1 [Compound I-3-22] | 78.5 | 370 |  |
| COc1ccn2nc(C)c(C(=O)NCc3ccc(N4CCC(c5ccc(OC(F)(F)F)cc5)CC4)cc3)c2c1 [Compound I-3-8] | 87.1 | 28 |  |
| CCc1nc2cc(F)ccn2c1C(=O)NCc1ccc(N2CCN(c3ccc(C(F)(F)F)cn3)[C@@H](C)C2)c(F)c1.Cl [Compound I-1-114] | 87 |  | 7.4 |
| CC[C@H]1CN(c2ccc(CNC(=O)c3c(C)nn4ccc(OC)cc34)cc2F)CCN1c1ccc(OC(F)(F)F)cc1.Cl [Compound I-2-9] | 73.5 | 19 |  |
| CCc1nc2ccc(Cl)cn2c1C(=O)NCc1ccc(N2CCN(c3ccc(OCC(F)(F)F)nc3)[C@@H](C)C2)c(F)c1 [Compound I-1-45] | 64 | 11 |  |
| Cc1cc2nc(C)c(C(=O)NCc3ccc(N4CCN(c5ccc(OC(F)(F)F)cc5)[C@@H](C)C4)c(F)c3)n2cc1F [Compound I-1-47] | 85 | 110 |  |
| Cc1ccn2c(C(=O)NCc3ccc(-c4ccc(OC(C)C)cc4)c(F)c3)c(C)nc2c1 [Compound I-3-9] | 85.9 | 130 |  |
| CCOc1ccc(N2CCC(c3ccc(CNC(=O)c4c(CC)nc5ccc(Cl)cn45)cc3F)CC2)cc1.Cl [Compound I-1-73] | 90 | 19 |  |
| CCc1nc2ccc(Cl)cn2c1C(=O)NCc1ccc(-n2cc3c(n2)CN(c2ccc(OC(F)(F)F)cc2)C3)c(F)c1.Cl [Compound I-3-47] | 62 | 5.1 |  |
| Cc1cn2c(C(=O)NCc3ccc(N4CCC5(CCN(c6ccc(C(F)(F)F)cc6)CC5)CC4)c(F)c3)c(C)nc2s1 [Compound I-3-10] | 84.9 | 29 |  |
| CCc1nc2cc(F)ccn2c1C(=O)NCc1ccc(N2CCN(c3ccc(OC(F)(F)F)cc3)[C@@H](C)C2)c(F)c1F.Cl [Compound I-1-96] | 90 | 11 |  |
| CCOc1ccc(N2CCN(c3ccc(CNC(=O)c4c(CC)nc5ccc(Cl)cn45)cc3F)C[C@@H]2C)cc1F.Cl [Compound I-1-53] | 65 | 37 |  |
| CCc1nc2ccc(Cl)cn2c1C(=O)NCc1ccc(N2CCN(c3ccc(OC(F)(F)F)cc3)[C@@H](CC)C2)c(F)c1 [Compound I-1-42] | 59 | 9 |  |
| CCc1nc2cc(F)ccn2c1C(=O)NCc1ccc(N2C[C@H](C)N(c3ccc(OCC(F)(F)F)nc3)C[C@H]2C)c(F)c1.Cl [Compound I-1-135] | 75 | 120 |  |
| Cc1nc2ccc(Cl)cn2c1C(=O)NCc1ccc(N2CCN(c3ccc(OC(F)(F)F)cc3)[C@H](C)C2)c(F)c1.Cl [Compound I-1-85] | 91 | 6.9 |  |
